Laboratory results published in PubChem BioAssay (NCI).
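A five-concentration, 48-hour dose response in 96-well plates underlies each endpoint, interpolated linearly between surrounding concentrations. At the GI50, growth is halved. The concentration for full growth arrest is given as TGI.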

Columns and labels:
Experiment in all cases: DTP human tumour cell line panel, 48 h
SNB-19 CNS = tested on: SNB-19 CNS
OVCAR-4 ovarian = tested on: OVCAR-4 ovarian
MOLT-4 leukemia = tested on: MOLT-4 leukemia
IGROV1 ovarian = tested on: IGROV1 ovarian
SN12C renal = tested on: SN12C renal
HOP-62 NSCLC = tested on: HOP-62 NSCLC
SF-539 CNS = tested on: SF-539 CNS
A549 NSCLC = tested on: A549 NSCLC
SK-OV-3 ovarian = tested on: SK-OV-3 ovarian
UACC-257 melanoma = tested on: UACC-257 melanoma

SMILES	TGI (SNB-19 CNS) [µM]	TGI (OVCAR-4 ovarian) [µM]	TGI (MOLT-4 leukemia) [µM]	TGI (IGROV1 ovarian) [µM]	TGI (SN12C renal) [µM]	TGI (HOP-62 NSCLC) [µM]	TGI (SF-539 CNS) [µM]	TGI (A549 NSCLC) [µM]	TGI (SK-OV-3 ovarian) [µM]	TGI (UACC-257 melanoma) [µM]	GI50 (SNB-19 CNS) [µM]	GI50 (OVCAR-4 ovarian) [µM]	GI50 (MOLT-4 leukemia) [µM]	GI50 (IGROV1 ovarian) [µM]	GI50 (SN12C renal) [µM]	GI50 (HOP-62 NSCLC) [µM]	GI50 (SF-539 CNS) [µM]	GI50 (A549 NSCLC) [µM]	GI50 (SK-OV-3 ovarian) [µM]	GI50 (UACC-257 melanoma) [µM]
CSc1nnc(CCC(=O)Nc2c(C)cccc2C)o1	> 100	> 100	> 100	> 100	> 100	> 100	> 100	> 100	> 100	> 100	–	–	–	–	–	–	–	–	–	–
O=C1OCC2=C1C(c1cccc(Cl)c1)c1cc3c(cc1N2CCO)OCCO3 (stereo not given)	> 100	> 100	> 100	> 47.4	46.3	40.5	0.975	4.35	1.96	28.2	0.0747	0.118	0.348	0.0792	0.27	0.0787	0.0467	0.132	0.0548	0.0364
CC(C)(C)C(=O)OCC1C(=O)OCC1C(=O)N1Cc2cc3ccccc3nc2C1 (stereo not given)	38.6	7.67	4.06	29.1	16.8	22	12	30.8	29.8	13.4	–	–	–	–	–	–	–	–	–	–
CC1=C(c2cccc(O)c2)[C@H](c2ccc(OCCN3CC(CF)C3)cc2)Oc2ccc(O)cc21	22.1	21.7	16	16.6	21.3	27.5	18.3	23.8	20.6	18.2	10.1	9.62	3.59	4.42	7.42	11	5.78	7.81	6.26	4.98
O=[N+]([O-])c1ccc(-n2nnc(C3=NCCN3)c2-c2ccccc2)cc1	> 100	> 100	> 100	> 100	> 100	> 100	> 100	> 100	> 100	> 100	–	–	–	–	–	–	–	–	–	–
C[C@H](OCc1ccccc1)C(=O)N1CCS(=O)(=O)N2CCC[C@@H]2C1=O	> 100	> 100	> 100	> 100	> 100	> 100	> 100	> 100	> 100	> 100	–	–	–	–	–	–	–	–	–	–
NC(=O)N/N=C1/CCC(O)CC1CC(=O)O (stereo not given)	> 100	> 100	> 100	> 100	> 100	> 100	> 100	> 100	> 100	> 100	–	–	–	–	–	–	–	–	–	–
Cc1cc2c(C(C)C)c(O)c(O)cc2c(O)c1-c1c(C)cc2c(C(C)C)c(O)c(O)cc2c1O	35.6	33.8	44.9	23.6	20.6	30.2	43.5	47.2	73.5	65	14.9	14	10.6	10.1	8.03	13	19.9	17.2	23.9	26.6
